Data: patent US9717772B2, “Interval therapy for the treatment of loss of eyesight in humans with glaucoma and other degenerative eye diseases” (Ramot at Tel-Aviv University Ltd., priority 2012, dated 2017)
Non-standard residues stand in square brackets, D forms with d. Residues, ends and D or L forms follow the SMILES beside them. Aib = CC(C)(N)C(=O)O

Legend:
[1] = test system: CA1 region of the hippocampus (Aβ1-42 inhibition of LTP); assay: Long-term potentiation (LTP) of fEPSPs in hippocampal slices after Aβ1-42 aggregated with or without D-Trp-Aib; format: cell-based, mice; settings: Aβ1-42 50 nM aggregated under serial dilution conditions without D-Trp-Aib
Method: Aβ1-42 (order number 62-0-80, batch Y11042T1, American Peptide Company, Sunnyvale, Calif. 94086, U.S.A.) is suspended in 100% HFIP (Sigma Aldrich) to approximately 1 mg/ml (2 mg dissolved in 2 ml HFIP) and shaken at 37° C. for 1.5 hours in tightly sealed Eppendorf vials. This is allowed to cool to room temperature and then the solution is portioned into aliquots and the HFIP removed by evaporation using a Speedvac for approximately 30 minutes. When dry, the Aβ1-42 is stored at −20° C. The Aβ1-42 is dissolved in anhydrous DMSO (Sigma Aldrich) to a concentration of 100 fold that required in PBS (i.e. 10 mM for 100 μM) with the aid of an ultrasonic water bath with/without D-Trp-Aib (SEQ ID NO. 30) (i.e. for a 10:1 ratio with D-Trp-Aib (SEQ ID NO. 30) 100 mM for 10 mM Aβ1-42). This solution is then immediately diluted in PBS to a final concentration of 100 μM Aβ in 1% DMSO. These solutions are allowed to aggregate at room temperature for various times (e.g. 1 hour, 1 day, 1 week) before being used. […]
Extracellular recordings of field excitatory postsynaptic potentials (fEPSPs) are obtained from the dendritic region of the CA1 region of the hippocampus using glass micropipettes (1-2 MW) filled with superfusion solution. […] Amplified fEPSPs and NMDA-EPSCs are filtered (3 kHz), digitized (15 kHz) and measured and plotted online, using the “LTP-program”-software. […]

[2] = Half-life and concentrations of substance in the rat / vitreal space of the eye; format: in vivo
Method: In a further experiment, rats are treated systemically (s.c.) and the experiment is repeated as above. The aim of this study is to verify whether systemic administration produces sufficiently high concentrations in the eye. Therefore, additionally, concentrations of substances of the instant invention are analyzed in the vitreal space of the eye. In animals treated systemically with experimental substances, there is a decrease in RGC apoptosis at least at one time point assessed and significant concentrations of the experimental substances are detected in the vitreal space of the eye.
The experiment is repeated as described above, except that substance is applied (s.c.) once 24 hrs before induction of glaucoma.
In another animal study with glaucomatous rats (procedure as described above, Morrison model) D-Trp-Aib (SEQ ID NO. 30) is applied 3 days prior to the induction of glaucoma (one single s.c injection). […] The explanation of this unexpected finding is that the pretreatment with D-Trp-Aib (SEQ ID NO. 30) leads to formation of non-toxic bulky Aβ aggregates (possibly micro non-toxic bulky Aβ aggregates) consisting of D-Trp-Aib (SEQ ID NO. 30) and physiologically Aβ that is ubiquitously prevailing at low concentrations. These non-toxic bulky Aβ aggregates function in isolating toxic Aβ after glaucoma induction even if the Aβ is released at higher concentrations.

Row | Molecule | inhibition of LTP [1] | detectability in the animal at the time point of glaucoma induction ([2]; 3 days after one single s.c injection) | half-life ([2]; in vivo, in the rat) [h]
1 | Aβ1-42: lyophilized β-amyloid Aβ1-42 peptide (Bachem / American Peptide Company) used as toxic stimulus | strong inhibition of LTP | – | –
2 | CC(C)(NC(=O)[C@H](N)Cc1c[nH]c2ccccc12)C(=O)O [D-Trp-Aib] (H-[dW]-[Aib]-OH; N-terminus and C-terminus assumed) | – | no longer detectable | 1 to 2
